The EC50 is the concentration needed to bring the measured effect to its halfway point.

One test concerns the target T1, human FPR1 (Homo sapiens, UniProt P21462).
T1 sequence (P21462 1-350): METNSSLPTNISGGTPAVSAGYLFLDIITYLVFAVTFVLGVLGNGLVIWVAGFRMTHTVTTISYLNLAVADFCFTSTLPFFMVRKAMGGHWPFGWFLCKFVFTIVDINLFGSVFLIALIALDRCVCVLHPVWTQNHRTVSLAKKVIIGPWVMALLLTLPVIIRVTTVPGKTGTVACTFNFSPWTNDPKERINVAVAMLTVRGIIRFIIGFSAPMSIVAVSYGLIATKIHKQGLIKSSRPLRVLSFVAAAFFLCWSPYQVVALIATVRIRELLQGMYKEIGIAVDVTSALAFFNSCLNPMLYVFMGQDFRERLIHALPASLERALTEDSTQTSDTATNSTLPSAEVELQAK
The experiment in a line: FPR1 cyclic adenosine monophosphate (cAMP) assay. In kind it is cell-based. As to conditions: CHO cells overexpressing human FPR1; forskolin 10 μM; inhibition of cAMP production; HTRF; read-out: hFPR1 cAMP2 EC50. The procedure, abridged: (§1)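 Inhibition of forskolin-stimulated cAMP (final forskolin 5 μM for FPR2, 10 μM for FPR1; IBMX 200 μM) was measured by HTRF in recombinant CHO cells after 30 min at room temperature.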
For orientation: Changes in cAMP serve as a functional read-out for many G protein-coupled receptors.

The target of a further test is T2, human FPR2 (Homo sapiens, UniProt P25090).
T2 sequence (P25090 1-351): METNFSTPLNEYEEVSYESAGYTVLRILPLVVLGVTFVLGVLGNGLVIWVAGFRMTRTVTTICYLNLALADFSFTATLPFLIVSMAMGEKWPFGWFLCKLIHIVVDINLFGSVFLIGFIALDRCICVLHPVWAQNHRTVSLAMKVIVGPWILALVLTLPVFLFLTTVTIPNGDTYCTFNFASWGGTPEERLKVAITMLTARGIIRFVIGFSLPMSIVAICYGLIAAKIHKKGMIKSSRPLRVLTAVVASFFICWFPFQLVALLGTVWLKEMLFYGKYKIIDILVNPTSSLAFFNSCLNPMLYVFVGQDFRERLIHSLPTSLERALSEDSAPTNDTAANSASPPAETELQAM
The experiment in a line: FPR2 cyclic adenosine monophosphate (cAMP) assay. The conditions noted are these: CHO cells overexpressing human FPR2; forskolin 5 μM; inhibition of cAMP production; HTRF; read-out: hFPR2 cAMP2 EC50. In kind it is cell-based. An outline of the steps: as §1

With `COc1cc(C2CC2)nc(-n2c(=O)c(NC(=O)c3ccc(OC(F)F)cc3)c(-c3c(F)cc(OC)cc3F)n2C)c1` [Example 88, N-(2-(6-cyclopropyl-4-methoxypyridin-2-yl)-5-(2,6-difluoro-4-methoxyphenyl)-1-methyl-3-oxo-2,3-dihydro-1H-pyrazol-4-yl)-4-(difluoromethoxy)benzamide], the EC50 is 6300 nM on human FPR1 and 2 nM on human FPR2.

In the case of `CNC(=O)CNc1ccc(C(F)(F)F)c(-n2c(=O)c(NC(=O)c3ccc(OC(F)F)cc3)c(-c3c(F)cc(OC)cc3F)n2C)n1` [Example 238, N-[5-(2,6-difluoro-4-methoxyphenyl)-1-methyl-2-(6-{[(methylcarbamoyl)methyl]amino}-3-(trifluoromethyl)pyridin-2-yl)-3-oxo-2,3-dihydro-1H-pyrazol-4-yl]-4-(difluoromethoxy)benzamide], the EC50 at human FPR1 is above 10000 nM; on human FPR2 it was 3 nM.

For `COc1cc(C2CCCNC2)nc(-n2c(=O)c(NC(=O)c3ccc(OC(F)F)cc3)c(-c3c(F)cc(OC)cc3F)n2C)c1` (centres unmarked) [Example 347, N-(5-(2,6-Difluoro-4-methoxyphenyl)-2-(4-methoxy-6-(piperidin-3-yl)pyridin-2-yl)-1-methyl-3-oxo-2,3-dihydro-1H-pyrazol-4-yl)-4-(difluoromethoxy)benzamide], the EC50 was above 10000 nM on human FPR1 and 4 nM on human FPR2.

For the molecule `COc1cc(F)c(-c2c(NC(=O)c3ccc(OC(F)F)cc3)c(=O)n(-c3nc(C(F)(F)F)ccc3NCCO)n2C)c(F)c1` [Example 374, N-(5-(2,6-Difluoro-4-methoxyphenyl)-2-(3-((2-hydroxyethyl)amino)-6-(trifluoromethyl)pyridin-2-yl)-1-methyl-3-oxo-2,3-dihydro-1H-pyrazol-4-yl)-4-(difluoromethoxy)benzamide], the EC50 on human FPR1 worked out at 320 nM; at human FPR2, 22 nM.

In the case of `COc1cc(F)c(-c2c(NC(=O)c3ccc(OC(F)F)cc3)c(=O)n(-c3nc(N4CCN(CC(F)F)CC4)ccc3C(F)(F)F)n2C)c(F)c1` [Example 270, N-[5-(2,6-difluoro-4-methoxyphenyl)-2-{6-[4-(2,2-difluoroethyl)piperazin-1-yl]-3-(trifluoromethyl)pyridin-2-yl}-1-methyl-3-oxo-2,3-dihydro-1H-pyrazol-4-yl]-4-(difluoromethoxy)benzamide], the EC50 came out at 3400 nM on human FPR1 and 6 nM at human FPR2.

As to `COc1cc(-n2c(=O)c(NC(=O)c3ccc(OC(F)F)cc3)c(-c3c(F)cc(OC)cc3F)n2C)cc(C(F)(F)F)c1` [Example 117, N-[5-(2,6-difluoro-4-methoxyphenyl)-2-[3-methoxy-5-(trifluoromethyl)phenyl]-1-methyl-3-oxo-2,3-dihydro-1H-pyrazol-4-yl]-4-(difluoromethoxy)benzamide], the EC50 is above 10000 nM at human FPR1 and 8 nM at human FPR2.

Turning to `COc1cc(F)c(-c2c(NC(=O)c3ccc(OC(F)F)cc3)c(=O)n(-c3nc(OCC(C)(C)O)ccc3Cl)n2C)c(F)c1` [Example 298, N-{2-[3-chloro-6-(2-hydroxy-2-methylpropoxy)pyridin-2-yl]-5-(2,6-difluoro-4-methoxyphenyl)-1-methyl-3-oxo-2,3-dihydro-1H-pyrazol-4-yl}-4-(difluoromethoxy)benzamide], the EC50 at human FPR1 is 440 nM; at human FPR2 it was 14 nM.

Consider `COc1cc(F)c(-c2c(NC(=O)c3ccc(OC(F)F)cc3)c(=O)n(-c3nc(C)ccc3C#N)n2C)c(F)c1` [Example 357, N-(2-(3-Cyano-6-methylpyridin-2-yl)-5-(2,6-difluoro-4-methoxyphenyl)-1-methyl-3-oxo-2,3-dihydro-1H-pyrazol-4-yl)-4-(difluoromethoxy)benzamide], for which the EC50 at human FPR1 was above 10000 nM; at human FPR2 it was 5 nM.

On to `COc1cc(F)c(-c2c(NC(=O)c3ccc(OC(F)F)cc3)c(=O)n(-c3cc(C#N)cc(C(F)(F)F)n3)n2C)c(F)c1` [Example 341, N-(2-(4-Cyano-6-(trifluoromethyl)pyridin-2-yl)-5-(2,6-difluoro-4-methoxyphenyl)-1-methyl-3-oxo-2,3-dihydro-1H-pyrazol-4-yl)-4-(difluoromethoxy)benzamide], for which the results for the EC50 on human FPR1 and on human FPR2 were 2600 nM and 10 nM, respectively.

As for `COc1cc(OCC(C)(C)F)nc(-n2c(=O)c(NC(=O)c3ccc(OC(F)F)cc3)c(-c3c(F)cc(OC)cc3F)n2C)c1` [Example 385, N-(5-(2,6-Difluoro-4-methoxyphenyl)-2-(6-(2-fluoro-2-methylpropoxy)-4-methoxypyridin-2-yl)-1-methyl-3-oxo-2,3-dihydro-1H-pyrazol-4-yl)-4-(difluoromethoxy)benzamide], the values for the EC50 on human FPR1 and at human FPR2 were above 10000 nM and 3 nM, respectively.

As to `COc1cc(F)c(-c2c(NC(=O)c3ccc(OC(F)F)cc3)c(=O)n(-c3nc(N4CCC[C@H]4C(N)=O)ccc3C(F)(F)F)n2C)c(F)c1` [Example 216, (2S)-1-{6-[3-(2,6-difluoro-4-methoxyphenyl)-4-[4-(difluoromethoxy)benzamido]-2-methyl-5-oxo-2,5-dihydro-1H-pyrazol-1-yl]-5-(trifluoromethyl)pyridin-2-yl}pyrrolidine-2-carboxamide], the results for the EC50 at human FPR1 and at human FPR2 were above 10000 nM and 6 nM, respectively.

In the case of `Cn1c(-c2c(F)cc(C(F)(F)F)cc2F)c(NC(=O)c2ccc(OC(F)F)cc2)c(=O)n1-c1cccc(C(C)(C)O)n1` [Example 401, N-(5-(2,6-difluoro-4-(trifluoromethyl)phenyl)-2-(6-(2-hydroxypropan-2-yl)pyridin-2-yl)-1-methyl-3-oxo-2,3-dihydro-1H-pyrazol-4-yl)-4-(difluoromethoxy)benzamide], the values for the EC50 on human FPR1 and on human FPR2 were 1800 nM and 103 nM, respectively.

On to `COc1cc(F)c(-c2c(NC(=O)c3ccc(OC(F)(F)F)cc3)c(=O)n(-c3ncccc3C#N)n2C)c(F)c1` [Example 56, N-[2-(3-cyanopyridin-2-yl)-5-(2,6-difluoro-4-methoxyphenyl)-1-methyl-3-oxo-2,3-dihydro-1H-pyrazol-4-yl]-4-(trifluoromethoxy)benzamide], for which the EC50 is above 10000 nM on human FPR1 and 7 nM at human FPR2.

Take `CCOC1(c2ccc(C#N)c(-n3c(=O)c(NC(=O)c4ccc(OC(F)F)cc4)c(-c4c(F)cc(OC)cc4F)n3C)n2)CC1` [Example 192, N-{2-[3-cyano-6-(1-ethoxycyclopropyl)pyridin-2-yl]-5-(2,6-difluoro-4-methoxyphenyl)-1-methyl-3-oxo-2,3-dihydro-1H-pyrazol-4-yl}-4-(difluoromethoxy)benzamide]: the concentration giving a half-maximal response (EC50) at human FPR1 is above 10000 nM; at human FPR2, 4 nM.

`COc1cc(F)c(-c2c(NC(=O)c3ccc(OC(F)F)cc3)c(=O)n(-c3nc(N4CCN(S(C)(=O)=O)CC4)ccc3C(F)(F)F)n2C)c(F)c1` [Example 268, N-[5-(2,6-difluoro-4-methoxyphenyl)-2-[6-(4-methanesulfonylpiperazin-1-yl)-3-(trifluoromethyl)pyridin-2-yl]-1-methyl-3-oxo-2,3-dihydro-1H-pyrazol-4-yl]-4-(difluoromethoxy)benzamide]: the EC50 was 1500 nM at human FPR1 and 2 nM at human FPR2.

On to `COc1cc(F)c(-c2c(NC(=O)c3ccc(OC(F)F)cc3)c(=O)n(-c3cc(OCC4CCCO4)cc(C)n3)n2C)c(F)c1` (centres unmarked) [Example 391, N-(5-(2,6-Difluoro-4-methoxyphenyl)-1-methyl-2-(6-methyl-4-((tetrahydrofuran-2-yl)methoxy)pyridin-2-yl)-3-oxo-2,3-dihydro-1H-pyrazol-4-yl)-4-(difluoromethoxy)benzamide], for which the EC50 at human FPR1 was determined as 240 nM; on human FPR2 it was 6 nM.

The record behind these values is patent US12577206B2 (BRISTOL-MYERS SQUIBB COMPANY, priority 2020, dated 2026).
